Experimental findings from the METLIN SMRT retention time set (Domingo-Almenara et al. 2019) are described below.

The data set in a line: gradient 5% acetonitrile 3 min, to 50% in 2 min, to 85% in 15 min, held 3 min, 100 µL/min. Conditions: column: Zorbax Extend-C18 2.1 x 50 mm; eluents: water / acetonitrile, 0.1% formic acid. The essentials: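 Each retention time is based on an adduct peak selected computationally and verified by manual inspection. Measurements used HPLC–quadrupole time-of-flight mass spectrometry in positive and negative ionization mode on mixtures of ~100 pure standards. Chromatography ran on a Zorbax Extend-C18 column (2.1 × 50 mm, 1.8 μm) at 100 μL/min with water and acetonitrile, each containing 0.1% formic acid, and dead and dwell volumes of 40 μL and 900 μL.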
Molecule `COc1ccc(-c2noc(-c3cccnc3N3CCN(c4ccccc4F)CC3)n2)cc1` returned an RP-LC retention time of 1370 s.

Take `Cc1cccc(-c2cc3n(n2)CCCN(C(=O)c2n[nH]c4ccccc24)C3)c1`: the RP-LC retention time was 860 s. `CCOc1ccc(C(=O)NC2CCN(c3cc(-c4cccs4)[nH]n3)C2)cc1` (centres undefined) returned an RP-LC retention time of 658 s. As for `O=C(CC1CCN(C(=O)NCc2ccccc2)CC1)NCc1cccc(F)c1`, the figure is 741 s; as for `Cc1ccc2nc(-c3c(F)cccc3Cl)c(Nc3ccc4c(c3)OCO4)n2c1`, 700 s. In the case of `O=S(=O)(c1ccc2c(c1)CCCC2)N1CCCC1c1nc(-c2ccc(F)cc2)no1` (centres undefined) it was 1290 s; in that of `O=C(NCc1cc(F)cc(F)c1)C1CC(=O)N(c2ccc3c(c2)CCN3C(=O)C2CC2)C1` (centres undefined), 767 s; in that of `CCOc1ccccc1NC(=O)C1CCN(S(=O)(=O)c2ccc3[nH]c(=O)ccc3c2)CC1`, 789 s. `O=C(Nc1c(-c2ccc(F)cc2)nc2ccccn12)c1ccc(F)cc1` yielded an RP-LC retention time of 671 s. On to `COc1ncccc1C(=O)N1CCC(C(=O)Nc2cc(C)on2)CC1`, for which the RP-LC retention time amounted to 622 s. In the case of `O=C(N/N=C/c1coc2ccccc2c1=O)c1cccnc1` it was 663 s. As for `CNC(=O)c1c(F)cccc1Nc1nc(Nc2cc3c(cc2OC)CCN3C(=O)CN(C)C)nc2[nH]ccc12`, the figure is 652 s. As for `Cc1oc(-c2[nH]ncc2C(=O)N2CCCC2)cc1S(=O)(=O)N(C)C`, the figure is 620 s; as for `Cc1noc(C2CN(C(=O)Nc3ccccc3F)CC23CCOCC3)n1` (centres undefined), 694 s; as for `CCOc1ccc(OCC)c(NC(=O)C2CCN(C(=O)C3Sc4ccccc4NC3=O)CC2)c1` (centres undefined), 882 s. The molecule `O=C(O)c1ccc(Nc2nc(-c3ccc(Cl)cc3Cl)nc3ccccc23)cc1` gave an RP-LC retention time of 828 s. As to `CCOC(=O)c1cc(C(=O)OCC)n(CC(=O)c2ccccc2)n1`, the RP-LC retention time stood at 973 s. In turn, `O=C(CCNc1c(-c2cccc(F)c2)nc2cnccn12)NCc1ccc2c(c1)OCO2` yielded an RP-LC retention time of 712 s. In the case of `Cc1cccc(-c2noc(Cn3ncn4nc(-c5ccccc5Cl)cc4c3=O)n2)c1` it was 1200 s. As for `COc1ccc(CCC(=O)Nc2cnn(-c3ncc(N(C)C)cn3)c2)cc1`, the figure is 737 s; as for `N#CC[C@@H](C1CCCC1)n1cc(-c2ncnc3[nH]ccc23)cn1`, 689 s; as for `Cc1ccccc1NC(=O)C(=O)Nc1ccccc1C`, 1080 s. The molecule `COc1ccc(C2(C(=O)N3CCC(Cc4nc(-c5ccccc5)n[nH]4)C3)CC2)cc1` (centres undefined) had an RP-LC retention time of 734 s. `Cc1cc(C(=O)N2CC(c3nc(Cc4ccccc4)no3)C2)c(C)o1` came in with an RP-LC retention time of 836 s.

`COc1ccc(CCNC(=O)CSC2=Nc3ccc(C)cc3OC2)cc1OC` displayed an RP-LC retention time of 750 s. As for `O=C(c1ccc(F)c(F)c1)N1CCC2(CC1)NC(=O)N(Cc1ccc(F)cc1)C2=O`, the figure is 830 s. In the case of `CCc1nc(-c2csc(S(=O)(=O)N3CCC(C(=O)NCc4ccccc4Cl)CC3)c2)no1` it was 984 s; in that of `CCC(=O)N(C1CCOCC1)C1CCN(S(=O)(=O)c2ccccc2)CC1`, 764 s; in that of `CCOC(=O)N1CCN(c2ncc(S(=O)(=O)c3ccc(C)c(C)c3)c(N)n2)CC1`, 891 s. `Cc1csc(-c2cc(S(=O)(=O)NC(C)C)c(C)n2C)n1` displayed an RP-LC retention time of 852 s.

In turn, `CCOCCn1c(=O)c2c(nc3n2CC(C)CN3c2ccc(OC)cc2)n(C)c1=O` (centres undefined) registered an RP-LC retention time of 853 s. As for `Cc1ccnc(N2CCCC(C(=O)N3CCC(Cc4ccccc4)CC3)C2)n1` (centres undefined), the figure is 987 s. As for `Cn1ncc2c3ccccc3n(CCCC(=O)NCCc3cccs3)c2c1=O`, the figure is 834 s; as for `COc1cc(OC)c(NC(=O)Nc2cc(C)on2)cc1Cl`, 865 s; as for `Cc1cc(=O)oc2cc(OCC(O)CN3CCN(c4ccccn4)CC3)ccc12` (centres undefined), 574 s. As for `CCc1nc2ccccc2c(=O)n1Cc1noc(-c2cc(OC)c(OC)c(OC)c2)n1`, the figure is 919 s; as for `COCC(=O)Nc1cnc(-c2cccnc2)nc1`, 554 s. `COc1ccc(-c2nc3cc(C)ccn3c2Nc2ccccc2C)cc1` gave an RP-LC retention time of 743 s. As for `CC(C)NC(=O)N1CC=C(c2cn(C(C)C)c3ncccc23)CC1`, the figure is 632 s; as for `CC(=O)NCc1ccc(-c2noc(-c3cc(Cl)ccc3F)n2)s1`, 888 s. In the case of `CCC(C)NC(=O)Cn1c(=O)c2cnc(-c3ccc(C)cc3)nc2n(C)c1=O` (centres undefined) it was 920 s; in that of `COc1ccc(N2CCN(c3cc(SCC(=O)Nc4ccc(C)cc4)ncn3)CC2)cc1`, 966 s.

Regarding `Cc1cc(S(=O)(=O)N2CCC3(CC2)CCC(O)(CN2CCCC2)CC3)ccc1Cl`, the RP-LC retention time came to 706 s. In the case of `CN(C)S(=O)(=O)c1ccc(-c2nnc(C(=O)NCc3ccc(Cl)cc3)o2)cc1` it was 909 s; in that of `CC1=C(c2ccc(C(C)C)cc2)S(=O)(=O)N=C1N1CCC(NC(=O)c2ccoc2)CC1`, 769 s; in that of `O=C(Cn1cnc2c(nc3n2CCCCC3)c1=O)N1CCN(C2CCCCC2)CC1`, 585 s. Take `COc1cc(OC)c(NC(=O)COc2cc(C)nc(N3CCCCCC3)n2)cc1Cl`: the RP-LC retention time turned out to be 659 s.

Regarding `COc1cccc(-c2nc(C3CCN(S(=O)(=O)c4cc(C)c(C)cc4C)CC3)no2)c1`, the RP-LC retention time stood at 1280 s.

As to `O=C(CCC[C@@H]1[C@H]2CCCN3CCC[C@@H](CN1C(=O)C1CC1)[C@@H]23)Nc1ccccc1`, the RP-LC retention time is 609 s. As for `COc1ccc(N2CCN(S(=O)(=O)c3cc(-c4cc(C(F)(F)F)on4)cs3)CC2)cc1`, the figure is 1190 s; as for `CCN1CCN(C(=O)CN2c3ccc(F)cc3-c3ccccc3S2(=O)=O)CC1`, 639 s; as for `Cc1nc2nc(-c3ccccc3)nn2c(C)c1CC(=O)N(CCO)Cc1ccccc1`, 740 s. As for `Cc1nc(-c2cn(C)c3ncccc23)sc1C(=O)Nc1ccc(Cl)cc1F`, the figure is 975 s; as for `CS(=O)(=O)N1CCOc2ccc(CCC(N)=O)cc2C1`, 628 s. Molecule `CNC(=O)NC1CCN(C(=O)c2ccc(F)cc2)C1` (centres undefined) came in with an RP-LC retention time of 600 s. In the case of `CCCCCNC(=O)c1ccc2c(c1)CCCN2S(=O)(=O)CC` it was 896 s. As for `Cc1ccc(C)c(-c2csc(Nc3ccc(S(=O)(=O)Nc4cc(C)on4)cc3)n2)c1`, the figure is 1070 s. As for `CCOC(=O)c1c(C)c(CCC(=O)N2CCCCCC2)n(CC)c1C`, the figure is 985 s; as for `COc1ccc(NC(=O)C2=Cc3ccccc3OC=C2)c(OC)c1`, 1030 s.

`CCn1ccc2c(cc(C(=O)Nc3ccc(C)cc3C)n2C)c1=O`: the RP-LC retention time was determined as 753 s. As for `COc1cccc(CNC(=O)C2(C)CCCN(C(=O)Nc3cc(Cl)c(OC)cc3OC)C2)c1` (centres undefined), the RP-LC retention time is 900 s. In the case of `CC(C)c1ccc(N2C(=O)C3N=NN(Cc4nc(-c5ccc(Br)cc5)no4)C3C2=O)cc1` (centres undefined), the RP-LC retention time was determined as 1220 s.

`O=C(Cn1c(=O)nc(NC2CCCC2)c2ccccc21)Nc1cc(F)cc(F)c1` had an RP-LC retention time of 767 s. In the case of `O=C(Nc1ccccc1Cl)C1CCCN(c2ncnc3c2nc2n3CCCCC2)C1` (centres undefined) it was 851 s.

In the case of `O=C(NC1CC1)C1CC(=O)N(c2ccc3c(c2)CCN3C(=O)C2CC2)C1` (centres undefined), the RP-LC retention time came out at 630 s. Molecule `Cc1cc2c(cc1S(=O)(=O)N1CCCC1C(=O)Nc1ccc(Cl)cc1F)OCC(=O)N2` (centres undefined) yielded an RP-LC retention time of 843 s.

For the molecule `Cc1cccc(NC(=O)N2[C@H]3CC[C@@H]2c2cnc(C)nc2C3)c1`, the RP-LC retention time worked out at 663 s.

`CCCNC(=O)N1CC(c2nc(C)no2)C2(CCOCC2)C1` (centres undefined): the RP-LC retention time turned out to be 634 s. As for `COc1ccc(-c2nnc(-c3ccc(OC)c(S(=O)(=O)N4CCCCCC4)c3)o2)cc1OC`, the figure is 979 s. In the case of `COc1ccccc1-c1nc(Cn2nnc(-c3nc(-c4ccccc4C)no3)c2C)c(C)o1` it was 1180 s; in that of `Cc1ccc(NC(=O)N2CCC(CN3CCCC(C)C3)CC2)cc1` (centres undefined), 613 s; in that of `CCOC(=O)c1nc(N2CCN(c3cc(C)ccc3C)CC2)c2ccccc2n1`, 1120 s. As for `O=C(CSc1nnc2c3sc(N4CCCC4)nc3ncn12)Nc1ccc(F)cc1`, the figure is 794 s. Molecule `CC(C)N1C(=O)CSc2cnn(CC(=O)NC3CCCC3)c(=O)c21` had an RP-LC retention time of 688 s. Turning to `CCCCN(CC)C(=O)C1CCCN(c2nccc(C)n2)C1` (centres undefined), the RP-LC retention time is 752 s. As for `CCCn1cc(CCNC(=O)Nc2cc(Cl)ccc2Cl)c2cccnc21`, the figure is 963 s; as for `O=C(NC1CCCC1)C1CCN(C(=O)N2CCOc3ccc(Cl)cc32)CC1`, 841 s; as for `Cc1nc(-c2cc(S(=O)(=O)Nc3ccc(Cl)cc3F)c(C)s2)cs1`, 1030 s. As for `Cc1ccc(OCC(=O)Nc2ccc(-c3nc(-c4cc(C)ccc4C)co3)cc2)cc1`, the figure is 888 s.
